Source: patent US20240180932A1, “S[…] COMPOUNDS IN THE MANAGEMENT OF AGEING AND RELATED DISORDERS” (SOCIETE DES PRODUITS NESTLE S.A., priority 2021, published 2024)

Key:
WT C. elegans = experiment: Thermotolerance of C. elegans after a heat-shock of 37 C for 4 hours (survival, microfluidic Infinity System); assay type: in vivo; details: 48 hrs treatment
Description: FIG. 1. Compound 1 improves the thermotolerance of C. elegans, after a 37 C heat-shock. Day 1 adults were treated with 4 different concentrations of Compound 1 for 48 hrs at 20 C. Control is the no-drug-treated population. All compound solutions were made in NGM with 0.2% v/v DMSO, and the bacterial food source (20 mg/mL E. coli OP50). After 48 hrs of Compound 1 treatment, animals were exposed to 37 C for 4 hours and allowed to recover for 15 mins following which death scores were determined using the microfluidic Infinity System. One-way ANOVA test was used to compare the response from different doses. Multiple comparison test was conducted for pairwise comparison to identify the dosages which provide thermotolerance benefit.
It has been reported that exposing C. elegans to high temperatures increases the molecular stress and reduces animal lifespan. […] Importantly, this has been used to screen and evaluate the effectiveness of anti-ageing compounds. We monitored the survival of C. elegans after a thermal stress to determine whether Compound 1 could improve the ageing of these animals and at what concentrations this may occur. […] To achieve this, worms were maintained at their normal temperature (20 C) and then treated for 48-hour incubation with Compound 1 starting on adult day 1, followed by 4-hour heat challenge at 37 C, followed by 15 mins recovery and then death was recorded.

wild-type C. elegans = experiment: Lifespan of wild-type C. elegans (microfluidic Infinity System); assay type: in vivo; parameters: Mean lifespan / Maximum lifespan: unit not given here
Description: FIG. 2. 10 μM Compound 1 extends the mean and maximum lifespan of C. elegans. 60-70 synchronized day 1 adult animals were loaded in each Infinity chip and treated with 0.5 μM or 10 μM of Compound 1, throughout life, and with fresh doses of OP50 bacteria (20 mg/ml) at 20 C, each day. Note that the control is the no drug treated population (0.2% v/v DMSO liquid NGM). […] Each day, at the same time, death scores were determined and three independent trials were conducted, with two technical replicates per trial.
To determine whether Compound 1 can extend lifespan, C. elegans were treated with 0.5 μM or 10 μM Compound 1 from day 1 of adulthood. The microfluidic Infinity System was used to assess the lifespan of Compound 1-treated and non-treated control worms. 60-70 synchronized day 1 adult animals were loaded in each Infinity chip and treated with 0.5 μM or 10 μM of Compound 1, lifelong, with daily fresh doses of 20 mg/mL of OP50 bacteria at 20 C. Control is the no-drug-treated population, maintained in 0.2% v/v DMSO liquid NGM. […] Each day, at the same time death scores were determined using the Infinity Code. Three independent trials with two technical replicates per trial were conducted.

[1] = tested on: AMPKα2 knockout C. elegans (aak-2); experiment: Lifespan of AMPKα2 knockout C. elegans (aak-2); assay type: in vivo; parameters: Mean lifespan / Maximum lifespan: unit not given here
Description: FIG. 3. […] 60-70 synchronized day 1 adult aak-2 animals were loaded in each Infinity chip and treated with 0.5 μM or 10 μM of Compound 1, throughout life, and with fresh doses of OP50 bacteria (20 mg/ml) at 20 C, each day. Note that the control is the no drug treated population (0.2% v/v DMSO liquid NGM). […] Each day, at the same time, death scores were determined and three independent trials were conducted, with two technical replicates per trial.
We tested the ability of Compound 1 to extend lifespan in C elegans which have the AMP-activated protein kinase (AMPK) α2 subunit isoform deletion. This mutant strain (aak-2) is commonly used in lifespan studies to look at the dependence on activation of AMPK for mediating the lifespan and other effects of various compounds.

C. elegans = experiment: Mobility of C. elegans (highly active, moderately active, inactive cohorts); assay type: in vivo; details: for Effect on percentage of highly active animals: Days 5, 8, 12, 15
Description: FIG. 4. […] To measure locomotory health related parameters the same video recordings that were captured for live/dead scoring were analyzed. The movements of the individual animals were tracked and animals were grouped into cohorts of different activity. This was achieved by determining how much of the animal body moved in a boundary box that encompasses it, in a duration of 30 seconds.
FIG. 5. […] The movements of the individual animals were tracked and animals were grouped into cohorts of different activity. This was achieved by determining how much of the animal body moved in a boundary box that encompasses it, in a duration of 30 seconds.
FIG. 6. […] The movements of the individual animals were tracked and animals were grouped into cohorts of different activity. This was achieved by determining how much of the animal body moved in a boundary box that encompasses it, in a duration of 30 seconds.
It is possible to measure the mobility of C. elegans and monitor this throughout the lifespan of the worms. As with many species, C. elegans display an age-related decline in mobility. […] Therefore, we tested whether Compound 1 could improve the mobility of C. elegans throughout their lifespan. To measure locomotory health related parameters the same video recordings that were captured for live/dead scoring were analyzed using the Infinity Code. The movements of the individual animals were tracked and animals were grouped into cohorts of different activity. The cohort analysis involved determining how much of the animal body moved in the boundary box that encompasses it, in a duration of 30 seconds.

Zebrafish larvae = experiment: Autophagy induction in Zebrafish larvae (LC3-ZsGreen reporter, LC3 punctae); assay type: in vivo; details: 0.25, 0.5, 1 and 2.5 μM
Description: FIG. 7. Compound 1 increases autophagy in Zebrafish larvae. An autophagy reporter zebrafish line was generated by stable expression of the LC3 protein fused to ZsGreen under the control of a skeletal muscle specific promoter. Larvae from outcrossed transgenic zebrafish were raised at 28 C under standard laboratory conditions and have been treated at 48 h post-fertilization in 96 well plates with varying concentrations of Compound 1 at different concentrations as indicated in the figure. After 16 hours of treatment larvae were anesthetized with 0.016% tricaine and imaged with ImageXpress confocal system at 20× magnification (Molecular Devices). Z stack images were captured for each larva and maximal projection images were produced. Ammonium chloride (final concentration 100 mM) was added for an additional 4 h to block lysosomal degradation. Images were acquired again as before. In order to quantify autophagic flux, number of LC3 punctae have been calculated in presence and in absence of ammonium chloride with MetaXpress software (Molecular Devices) and normalized by zebrafish area.

[2] = Solubility in water-based solutions; assay type: physicochemical
[3] = aak-2, 0.5 μM, Pooled Trials 1 to 3
[4] = aak-2, 10 μM, Pooled Trials 1 to 3

Q: For C=C(C)[C@@H]1CCC(C)=C[C@H]1c1c(O)cc(CCCCC)c(C(=O)O)c1O [Compound 1, Cannabidiolic acid], which “Survival after heat shock” value (WT C. elegans; 0.5 μM) is on record?
A: small improvement in survival

Q: What about the “Survival after heat shock” value (WT C. elegans; concentrations above 0.5 μM) of the same compound?
A: almost a complete prevention of C. elegans death

Q: And the “% lifespan extension” value (wild-type C. elegans; 0.5 μM, Pooled Trials 1 to 3)?
A: 1.3%

Q: And the Maximum lifespan (wild-type C. elegans; 0.5 μM, Pooled Trials 1 to 3)?
A: 26

Q: And the Mean lifespan (wild-type C. elegans; 0.5 μM, Pooled Trials 1 to 3)?
A: 15.3 ± 5.4

Q: What about the “% lifespan extension” value (wild-type C. elegans; 0.5 μM, Trial 1) of the same compound?
A: 4.4%

Q: And the Maximum lifespan (wild-type C. elegans; 0.5 μM, Trial 1)?
A: 25

Q: And the Mean lifespan (wild-type C. elegans; 0.5 μM, Trial 1)?
A: 16.6 ± 5.8

Q: And the “% lifespan extension” value (wild-type C. elegans; 0.5 μM, Trial 2)?
A: 0%

Q: And the Maximum lifespan (wild-type C. elegans; 0.5 μM, Trial 2)?
A: 26

Q: What about the Mean lifespan (wild-type C. elegans; 0.5 μM, Trial 2) of the same compound?
A: 15.2 ± 5.7

Q: What about the “% lifespan extension” value (wild-type C. elegans; 0.5 μM, Trial 3) of the same compound?
A: 0%

Q: What about the Maximum lifespan (wild-type C. elegans; 0.5 μM, Trial 3) of the same compound?
A: 26

Q: And the Mean lifespan (wild-type C. elegans; 0.5 μM, Trial 3)?
A: 15.0 ± 5.4

Q: And the “Effect on mean and maximum lifespan” value (wild-type C. elegans; 10 μM)?
A: significantly extended mean and maximum lifespan

Q: And the maximum lifespan extension (wild-type C. elegans; 10 μM)?
A: 2 days

Q: And the mean lifespan extension (wild-type C. elegans; 10 μM)?
A: around 11%

Q: And the “% lifespan extension” value (wild-type C. elegans; 10 μM, Pooled Trials 1 to 3)?
A: 11.3%

Q: What about the Maximum lifespan (wild-type C. elegans; 10 μM, Pooled Trials 1 to 3) of the same compound?
A: 27

Q: What about the Mean lifespan (wild-type C. elegans; 10 μM, Pooled Trials 1 to 3) of the same compound?
A: 16.8 ± 5.6

Q: And the “% lifespan extension” value (wild-type C. elegans; 10 μM, Trial 1)?
A: 10%

Q: What about the Maximum lifespan (wild-type C. elegans; 10 μM, Trial 1) of the same compound?
A: 27

Q: And the Mean lifespan (wild-type C. elegans; 10 μM, Trial 1)?
A: 17.5 ± 5.8

Q: And the “% lifespan extension” value (wild-type C. elegans; 10 μM, Trial 2)?
A: 11.8%

Q: What about the Maximum lifespan (wild-type C. elegans; 10 μM, Trial 2) of the same compound?
A: 27

Q: What about the Mean lifespan (wild-type C. elegans; 10 μM, Trial 2) of the same compound?
A: 17.1 ± 5.9

Q: And the “% lifespan extension” value (wild-type C. elegans; 10 μM, Trial 3)?
A: 25%

Q: And the Maximum lifespan (wild-type C. elegans; 10 μM, Trial 3)?
A: 26

Q: And the Mean lifespan (wild-type C. elegans; 10 μM, Trial 3)?
A: 18.8 ± 6.0

Q: What about the “ability to extend lifespan in aak-2 worms” value ([1]; aak-2, 0.5 μM or 10 μM) of the same compound?
A: completely lost

Q: And the “% lifespan extension” value [1, 3]?
A: −1.2%

Q: And the Maximum lifespan [1, 3]?
A: 26

Q: What about the Mean lifespan [1, 3] of the same compound?
A: 15.9 ± 4.2

Q: And the “% lifespan extension” value ([1]; aak-2, 0.5 μM, Trial 1)?
A: 0%

Q: What about the Maximum lifespan ([1]; aak-2, 0.5 μM, Trial 1) of the same compound?
A: 25

Q: What about the Mean lifespan ([1]; aak-2, 0.5 μM, Trial 1) of the same compound?
A: 16.0 ± 4.2

Q: What about the “% lifespan extension” value ([1]; aak-2, 0.5 μM, Trial 2) of the same compound?
A: −4.7%

Q: And the Maximum lifespan ([1]; aak-2, 0.5 μM, Trial 2)?
A: 26

Q: What about the Mean lifespan ([1]; aak-2, 0.5 μM, Trial 2) of the same compound?
A: 16.1 ± 4.0

Q: What about the “% lifespan extension” value ([1]; aak-2, 0.5 μM, Trial 3) of the same compound?
A: −3.7%

Q: What about the Maximum lifespan ([1]; aak-2, 0.5 μM, Trial 3) of the same compound?
A: 25

Q: What about the Mean lifespan ([1]; aak-2, 0.5 μM, Trial 3) of the same compound?
A: 15.6 ± 4.4

Q: And the “% lifespan extension” value [1, 4]?
A: 0%

Q: And the Maximum lifespan [1, 4]?
A: 26

Q: What about the Mean lifespan [1, 4] of the same compound?
A: 16.1 ± 4.2

Q: And the “% lifespan extension” value ([1]; aak-2, 10 μM, Trial 1)?
A: −7.5%

Q: What about the Maximum lifespan ([1]; aak-2, 10 μM, Trial 1) of the same compound?
A: 23

Q: What about the Mean lifespan ([1]; aak-2, 10 μM, Trial 1) of the same compound?
A: 14.9 ± 3.8

Q: What about the “% lifespan extension” value ([1]; aak-2, 10 μM, Trial 2) of the same compound?
A: −4.1%

Q: What about the Maximum lifespan ([1]; aak-2, 10 μM, Trial 2) of the same compound?
A: 26

Q: And the Mean lifespan ([1]; aak-2, 10 μM, Trial 2)?
A: 16.2 ± 4.7

Q: What about the “% lifespan extension” value ([1]; aak-2, 10 μM, Trial 3) of the same compound?
A: 3.8%

Q: What about the Maximum lifespan ([1]; aak-2, 10 μM, Trial 3) of the same compound?
A: 24

Q: What about the Mean lifespan ([1]; aak-2, 10 μM, Trial 3) of the same compound?
A: 16.8 ± 3.5

Q: What about the “Effect on percentage of highly active animals” value (C. elegans; 0.5 μM) of the same compound?
A: increases the percentage of highly active animals at Day 8 only

Q: And the “Effect on moderately active worms” value (C. elegans; 0.5 μM, days 14 to 20)?
A: increases the number of moderately active worms

Q: What about the “Effect on proportion of inactive worms” value (C. elegans; 0.5 μM, days 14 to 20) of the same compound?
A: decreases the proportion of inactive worms

Q: What about the “Effect on percentage of highly active animals” value (C. elegans; 10 μM) of the same compound?
A: increases the percentage of highly active animals at Days 8, 12 and 15

Q: And the “Effect on proportion of highly active worms” value (C. elegans; 10 μM, days 14 and 20)?
A: increases the proportion of highly active worms

Q: What about the “Effect on proportion of inactive worms” value (C. elegans; 10 μM, days 14 and 20) of the same compound?
A: decreases the proportion of inactive worms

Q: And the “Mean % of Highly Active animals” value (C. elegans; Day 5, 0.5 μM)?
A: 83.7%

Q: And the “Mean % of Highly Active animals” value (C. elegans; Day 5, 10 μM)?
A: 89.3%

Q: What about the “Mean % of Highly Active animals” value (C. elegans; Day 8, 0.5 μM) of the same compound?
A: 75.7%

Q: And the “Mean % of Highly Active animals” value (C. elegans; Day 8, 10 μM)?
A: 78.1%

Q: What about the “Mean % of Highly Active animals” value (C. elegans; Day 12, 0.5 μM) of the same compound?
A: 45.2%

Q: What about the “Mean % of Highly Active animals” value (C. elegans; Day 12, 10 μM) of the same compound?
A: 49.7%

Q: And the “Mean % of Highly Active animals” value (C. elegans; Day 15, 0.5 μM)?
A: 18.3%

Q: And the “Mean % of Highly Active animals” value (C. elegans; Day 15, 10 μM)?
A: 23.7%

Q: What about the “Autophagy (LC3)” value (Zebrafish larvae; 16 hours, without NH4Cl) of the same compound?
A: dose-dependent increase in autophagy

Q: And the “Autophagy (LC3)” value (Zebrafish larvae; in the presence of NH4Cl)?
A: dose-dependent increase in autophagy

Q: And the Solubility [2]?
A: low solubility in water-based solutions
